Reference: patent US9096565B2, “Inhibitors of histone deacetylase” (MethylGene Inc., priority 2007, dated 2015)
pIC50: −log10 of the molar value.

Biological target: one or more of HDAC-4, HDAC-5, HDAC-6, HDAC-7, HDAC-8, HDAC-9, HDAC-10 and HDAC-11
Assay: Inhibition of histone deacetylase enzymatic activity (summary statement over isoforms)
Type: biochemical
Conditions: Table 3, selected examples; HDAC isoform not given
Summary of the method: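 HDAC enzyme mix with compound was preincubated 5 min at room temperature. Reaction was started at 37 °C with Boc-Lys(trifluoroacetyl)-AMC substrate and run 20-30 min. It was stopped with trypsin (1 mg/mL) plus a known HDAC inhibitor to release the fluorogenic AMC.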

Row | Structure (SMILES) | pIC50
1 | CN(C)CCOc1cccc(C(C(=O)NO)c2ccccc2)c1 (centres unmarked) [Compound 3-88, 2-(3-(2-(dimethylamino)ethoxy)phenyl)-N-hydroxy-2-phenylacetamide] | 4.82 to 6.00
2 | O=C(NO)C(c1ccccc1)c1nnc(C2c3ccccc3Oc3ccccc32)s1 (centres unmarked) [Compound 5-64, 2-(5-(9H-xanthen-9-yl)-1,3,4-thiadiazol-2-yl)-N-hydroxy-2-phenylacetamide] | > 6.00
3 | O=C(NO)C(Sc1cccc(O)c1)c1ccccc1 (centres unmarked) [Compound 6-38, N-hydroxy-2-(3-hydroxyphenylthio)-2-phenylacetamide] | 4.82 to 6.00
4 | O=C(NO)C(c1ccccc1)c1ccc(OCc2cccc(C(F)(F)F)c2)cc1 (centres unmarked) [Compound 3-71, N-hydroxy-2-phenyl-2-(4-(3-(trifluoromethyl)benzyloxy)phenyl)acetamide] | > 6.00
5 | CCN(CCOC)c1ccc(C(C(=O)NO)c2ccccc2)cc1 (centres unmarked) [Compound 6-46, 2-(4-(ethyl(2-methoxyethyl)amino)phenyl)-N-hydroxy-2-phenylacetamide] | > 6.00
6 | COCCOc1cccc(C(C(=O)NO)c2ccccc2)c1 (centres unmarked) [Compound 3-27, N-hydroxy-2-(3-(2-methoxyethoxy)phenyl)-2-phenylacetamide] | 4.82 to 6.00
7 | CCC(CC)COc1ccc(C(C(=O)NO)c2ccccc2)cc1 (centres unmarked) [Compound 3-55, 2-(4-(2-ethylbutoxy)phenyl)-N-hydroxy-2-phenylacetamide] | > 6.00
8 | O=C(NO)C(c1ccccc1)c1ccc(-c2ncccc2F)cc1 (centres unmarked) [Compound 5-74, 2-(4-(3-fluoropyridin-2-yl)phenyl)-N-hydroxy-2-phenylacetamide] | > 6.00
9 | Nc1ccccc1NC(=O)c1ccc(C(C(=O)NO)c2ccccc2)cc1 (centres unmarked) [Compound 5-108, N-(2-aminophenyl)-4-(2-(hydroxyamino)-2-oxo-1-phenylethyl)benzamide] | > 6.00
10 | O=C(NO)C(c1ccccc1)c1ccc(-c2ccccc2)cc1 (centres unmarked) [Compound 1-32, 2-(biphenyl-4-yl)-N-hydroxy-2-phenylacetamide] | > 6.00
11 | O=C(NO)C(c1ccccc1)c1cccc(NS(=O)(=O)c2ccc(Cl)cc2)c1 (centres unmarked) [Compound 2-93, 2-(3-(4-chlorophenylsulfonamido)phenyl)-N-hydroxy-2-phenylacetamide] | 4.82 to 6.00
12 | O=C(NO)C(c1ccccc1)c1ccc(OCCc2ccccc2)cc1 (centres unmarked) [Compound 2-12, N-hydroxy-2-(4-phenethoxyphenyl)-2-phenylacetamide] | > 6.00
13 | O=C(NO)C(Sc1ccccc1)c1ccc(-c2ccncc2)cc1 (centres unmarked) [Compound 5-116, N-hydroxy-2-(phenylthio)-2-(4-(pyridin-4-yl)phenyl)acetamide] | > 6.00
14 | O=C(NO)C(c1ccccc1)c1cccnc1 (centres unmarked) [Compound 5-15, N-hydroxy-2-phenyl-2-(pyridin-3-yl)acetamide] | > 6.00
15 | O=C(NO)C(c1ccccc1)N1CCC(N2CCOCC2)CC1 (centres unmarked) [Compound 2-42, N-hydroxy-2-(4-morpholinopiperidin-1-yl)-2-phenylacetamide] | 4.82 to 6.00
16 | CN(C)c1ccc(C(C(=O)NO)c2ccccc2)c2ccccc12 (centres unmarked) [Compound 5-32, 2-(4-(dimethylamino)naphthalen-1-yl)-N-hydroxy-2-phenylacetamide] | 4.82 to 6.00
17 | O=C(Cc1ccccc1)Nc1cccc(C(C(=O)NO)c2ccccc2)c1 (centres unmarked) [Compound 2-60, N-hydroxy-2-phenyl-2-(3-(2-phenylacetamido)phenyl)acetamide] | > 6.00
18 | O=C(NO)C(Sc1nccc(-c2cccs2)n1)c1ccccc1 (centres unmarked) [Compound 2-48, N-hydroxy-2-phenyl-2-(4-(thiophen-2-yl)pyrimidin-2-ylthio)acetamide] | 4.82 to 6.00
19 | O=C(NO)C(c1ccccc1)c1ccc(N2CCOCC2)cc1 (centres unmarked) [Compound 5-22, N-hydroxy-2-(4-morpholinophenyl)-2-phenylacetamide] | > 6.00
20 | CCCCOc1ccc(C(C(=O)NO)c2ccccc2)cc1 (centres unmarked) [Compound 2-10, 2-(4-butoxyphenyl)-N-hydroxy-2-phenylacetamide] | 4.82 to 6.00
21 | O=C(NO)C(c1ccccc1)c1ccc(-c2cccnc2)cc1 (centres unmarked) [Compound 5-12, N-hydroxy-2-phenyl-2-(4-(pyridin-3-yl)phenyl)acetamide] | > 6.00
22 | O=C(NO)C(c1ccccc1)C1CCN(c2ncccn2)CC1 (centres unmarked) [Compound 5-126, N-hydroxy-2-phenyl-2-(1-(pyrimidin-2-yl)piperidin-4-yl)acetamide] | 4.82 to 6.00
23 | O=C(NO)C(c1ccc(N2CCOCC2)cc1)c1cccc(C(F)(F)F)c1 (centres unmarked) [Compound 6-21, N-hydroxy-2-(4-morpholinophenyl)-2-(3-(trifluoromethyl)phenyl)acetamide] | 4.82 to 6.00
24 | O=C(NO)C(Oc1ccccc1F)c1ccccc1 (centres unmarked) [Compound 7-5, 2-(2-fluorophenoxy)-N-hydroxy-2-phenylacetamide] | 4.82 to 6.00
25 | O=C(NO)C(Sc1ccc(-c2ccccc2)cc1)c1ccccc1 (centres unmarked) [Compound 1-46, 2-(biphenyl-4-ylthio)-N-hydroxy-2-phenylacetamide] | > 6.00

Row | Structure (SMILES) | pIC50
26 | O=C(NO)C(c1ccccc1)c1nnc(-c2ccccc2Oc2ccccc2)s1 (centres unmarked) [Compound 5-52, N-hydroxy-2-(5-(2-phenoxyphenyl)-1,3,4-thiadiazol-2-yl)-2-phenylacetamide] | > 6.00
27 | O=C(NO)C(c1ccccc1)c1ccc(N2CCCCC2=O)cc1 (centres unmarked) [Compound 5-110, N-hydroxy-2-(4-(2-oxopiperidin-1-yl)phenyl)-2-phenylacetamide] | > 6.00
28 | O=C(NO)C(c1ccccc1)c1ccc(N2CCN(C/C=C/c3ccccc3)CC2)cc1 (centres unmarked) [Compound 5-85, (E)-2-(4-(4-cinnamylpiperazin-1-yl)phenyl)-N-hydroxy-2-phenylacetamide] | > 6.00
29 | CN(C)c1ccc(-c2cccc(C(C(=O)NO)c3ccccc3)c2)cc1 (centres unmarked) [Compound 2-105, 2-(4′-(dimethylamino)biphenyl-3-yl)-N-hydroxy-2-phenylacetamide] | > 6.00
30 | O=C(NO)C(c1ccccc1)c1cccc(-c2ccc3c(c2)CCO3)c1 (centres unmarked) [Compound 2-104, 2-(3-(2,3-dihydrobenzofuran-5-yl)phenyl)-N-hydroxy-2-phenylacetamide] | > 6.00
31 | CN1CCN(c2ccc(C(C(=O)NO)c3ccccc3)cc2)CC1 (centres unmarked) [Compound 5-83, N-hydroxy-2-(4-(4-methylpiperazin-1-yl)phenyl)-2-phenylacetamide] | > 6.00
32 | Cn1cc(C2CCN(C(C(=O)NO)c3ccccc3)CC2)c2ccccc21 (centres unmarked) [Compound 6-45, N-hydroxy-2-(4-(1-methyl-1H-indol-3-yl)piperidin-1-yl)-2-phenylacetamide] | > 6.00
33 | O=C(NO)C(c1ccccc1)c1cccc(OCCc2ccccc2)c1 (centres unmarked) [Compound 2-7, N-hydroxy-2-(3-phenethoxyphenyl)-2-phenylacetamide] | 4.82 to 6.00
34 | N#Cc1ccccc1COc1ccc(C(C(=O)NO)c2ccccc2)cc1 (centres unmarked) [Compound 3-61, 2-(4-(2-cyanobenzyloxy)phenyl)-N-hydroxy-2-phenylacetamide] | > 6.00
35 | O=C(NO)C(c1ccccc1)c1ccc(N2CCCC2)cc1 (centres unmarked) [Compound 1-41, N-hydroxy-2-phenyl-2-(4-(pyrrolidin-1-yl)phenyl)acetamide] | > 6.00
36 | O=C(NO)C(c1ccccc1)c1cccc(-c2ccc(Cl)cc2)c1 (centres unmarked) [Compound 2-103, 2-(4′-chlorobiphenyl-3-yl)-N-hydroxy-2-phenylacetamide] | > 6.00
37 | O=C(COc1ccccc1)Nc1ccc(C(C(=O)NO)c2ccccc2)cc1 (centres unmarked) [Compound 2-67, N-hydroxy-2-(4-(2-phenoxyacetamido)phenyl)-2-phenylacetamide] | > 6.00
38 | CC(C)(C)c1ccc(OC(C(=O)NO)c2ccccc2)cc1 (centres unmarked) [Compound 7-37, 2-(4-tert-butylphenoxy)-N-hydroxy-2-phenylacetamide] | 4.82 to 6.00
39 | O=C(NO)C(c1ccccc1)c1nnc(-c2ccc3[nH]ccc3c2)s1 (centres unmarked) [Compound 5-55, 2-(5-(1H-indol-5-yl)-1,3,4-thiadiazol-2-yl)-N-hydroxy-2-phenylacetamide] | > 6.00
40 | O=C(NO)C(c1ccccc1)N1CCN(c2ccccc2O)CC1 (centres unmarked) [Compound 5-103, N-hydroxy-2-(4-(2-hydroxyphenyl)piperazin-1-yl)-2-phenylacetamide] | 4.82 to 6.00
41 | CCCS(=O)(=O)Nc1cccc(C(C(=O)NO)c2ccccc2)c1 (centres unmarked) [Compound 2-87, N-hydroxy-2-phenyl-2-(3-(propylsulfonamido)phenyl)acetamide] | 4.82 to 6.00
42 | O=C(NO)C(c1ccccc1)c1cccc(NCc2ccncc2)c1 (centres unmarked) [Compound 2-81, N-hydroxy-2-phenyl-2-(3-(pyridin-4-ylmethylamino)phenyl)acetamide] | > 6.00
43 | O=C(NO)C(c1ccccc1)c1ccc(Nc2ccccc2)cc1 (centres unmarked) [Compound 3-80, N-hydroxy-2-phenyl-2-(4-(phenylamino)phenyl)acetamide] | > 6.00
44 | CCN(CC)c1ccc(C(C(=O)NO)c2ccccc2)cc1 (centres unmarked) [Compound 1-19, 2-(4-(diethylamino)phenyl)-N-hydroxy-2-phenylacetamide] | > 6.00
45 | O=C(NO)C(c1ccccc1)c1ccc(O)cc1 (centres unmarked) [Compound 5-36, N-hydroxy-2-(4-hydroxyphenyl)-2-phenylacetamide] | > 6.00
46 | O=C(NO)C(c1ccccc1)N1CCN(Cc2ccccc2)CC1 (centres unmarked) [Compound 1-17, 2-(4-benzylpiperazin-1-yl)-N-hydroxy-2-phenylacetamide] | 4.82 to 6.00
47 | O=C(NO)C(c1ccccc1)N1CCC(c2ccc(F)cc2)CC1 (centres unmarked) [Compound 5-62, 2-(4-(4-fluorophenyl)piperidin-1-yl)-N-hydroxy-2-phenylacetamide] | > 6.00
48 | CC(=O)N1CCN(c2cccc(C(C(=O)NO)c3ccccc3)c2)CC1 (centres unmarked) [Compound 3-75, 2-(3-(4-acetylpiperazin-1-yl)phenyl)-N-hydroxy-2-phenylacetamide] | > 6.00
49 | COc1cccc(CNc2ccc(C(C(=O)NO)c3ccccc3)cc2)c1 (centres unmarked) [Compound 2-84, N-hydroxy-2-(4-(3-methoxybenzylamino)phenyl)-2-phenylacetamide] | > 6.00
50 | CC(C)CCCOc1ccc(C(C(=O)NO)c2ccccc2)cc1 (centres unmarked) [Compound 3-56, N-hydroxy-2-(4-(4-methylpentyloxy)phenyl)-2-phenylacetamide] | > 6.00
